Holding throughout (type): protein assay
Assay [1] deals with T1, Alpha glucosidase (Homo sapiens, UniProt O43451+P10253+P14410+Q2M2H8). The assay is described as follows: Inhibition of Alpha-glucosidase (unknown origin).
For assay [2], the target named is T1, Alpha glucosidase. The assay is described as follows: Competitive inhibition of Alpha-glucosidase (unknown origin) by Lineweaver-Burk plot analysis.
Assay [3] deals with T1, Alpha glucosidase. In words: Inhibition of Alpha-glucosidase (unknown origin) by Lineweaver-Burk plot analysis. Conditions: dose 4.0 µM.

Each structure is given as a SMILES string.

For the molecule `O=c1ccc2cc(O)c(O)cc2o1` [ESCULETIN], the IC50 (as a rule, the concentration that gives 50% inhibition) in assay [1] was above 500 µM. For the molecule `O=c1ccc2c(Oc3cc4oc(=O)ccc4c(-c4c(O)c(O)c(-c5c(O)c(O)c(-c6c(O)c(O)cc7oc(=O)ccc67)c6ccc(=O)oc56)c5ccc(=O)oc45)c3O)c(O)c(O)cc2o1`, the IC50 in assay [1] came to 0.7 µM. Moreover, in assay [2], the Ki (in general, the dissociation constant of the complex between target and ligand, obtained from inhibition or displacement) stood at 0.2 µM. Moreover, the inhibition result in assay [3] was “Dose-Dependent Effect”. In the case of `O=c1ccc2c(-c3c(O)c(O)c(-c4c(O)c(O)cc5ccc(=O)oc45)c4oc(=O)ccc34)c(O)c(O)cc2o1`, the IC50 in assay [1] came out at 4.2 µM. In assay [1], `O=c1ccc2c(-c3c(O)c(O)c(-c4c(O)c(O)cc5oc(=O)ccc45)c4oc(=O)ccc34)c(O)c(O)cc2o1` showed an IC50 of 4.7 µM. In assay [2], the Ki turned out to be 1.9 µM. The like results for `O=c1ccc2c(-c3c(O)c(O)cc4ccc(=O)oc34)c(O)c(O)cc2o1` were, in that order, 17.6 µM and 10.1 µM. The like results for `O=c1ccc2cc(O)c(O)c(-c3c(O)c(O)cc4ccc(=O)oc34)c2o1` were, in that order, 6.4 µM and 3.4 µM. In assay [1], `O=c1ccc2c(-c3c(O)c(O)c(-c4c(O)c(O)c(-c5c(O)c(O)cc6oc(=O)ccc56)c5oc(=O)ccc45)c4oc(=O)ccc34)c(O)c(O)cc2o1` showed an IC50 of 2.3 µM. The molecule further registered a Ki in assay [2] of 0.9 µM.

The values are drawn from ChEMBL document CHEMBL5257102, “Enzymatic transformation of esculetin as a potent class of α-glucosidase inhibitors” (Bioorg Med Chem Lett, 2023).
